Consider twelve compounds from US6030980A, “Agent for the treatment of infections” (priority 1994, dated 2000).

What is called LD50 is the dose at which mortality reaches 50%. Read a high LD50 as a less toxic substance.

SMILES strings stand for the structures.

Data set [1] in a line: Acute toxicity of aconite-alkaloids. The settings on record: in vivo.
The test system of data set [2] is suppressor cell activities induced in thermally injured mice. The class given is cell-based, BALB/c mice. The settings on record: 1 μg/kg of aconite-alkaloid given twice to contrasuppressor cell donors; normal model 12413 ± 1438, susceptibility model 2650 ± 70.
Data set [3] has as its system herpes simplex virus type I. As to the kind of experiment: animal or person. The class given is in vivo, BALB/c male mice. The settings on record: thermally injured mice, HSV type I 3×10^3 PFU/kg i.p., oral 1 μg/kg of aconite-alkaloid; for responders at 0.001 mg/kg: Mus musculus, 600 h, read-out: survival rate; for average survival days: 25 days.
For data set [4], the system named is herpes simplex virus type I. Put plainly: Survival of mice infected with a lethal dose of herpes simplex virus type I (Experimental Example 2). Type of data set: in vivo, BALB/c mice. As to conditions: HSV type I 3×10^5 PFU/kg i.p., 10 μg/kg oral, before and after infection. How it is done: In this example, 7-week-old BALB/c mice were infected intraperioneally with a lethal dose (3×10^5 PFU/kg) of herpes simplex virus type I. Two days before the infection, 1 day and 4 days after the infection, the active ingredient of the present agent (10 μg/kg) or physiological saline (control) was orally administered through a stomach probe into the mice. Twenty-five days after the infection, their survival rate was determined to evaluate the action of the active ingredient. In this experiment, the experimental mice were given the active ingredient of the present agent before and after infection with the virus to evaluate its action mainly on the prevention and treatment of the virus infection.

For data set [5] the following is noted: J. Pharm. Dyu.7, 836-848 (1984); cited from earlier work.
For data set [6], the system named is suppressor cell activities. As to the kind of experiment: Contrasuppressor cell activities in MLTR, suppressor cells from LP-BM5 virus infected mice. As to conditions: 1 μg/kg, suppressor cells from mice 110 days after infection with LP-BM5 virus. The class given is cell-based. The method, then: Contrasuppressor cell activities, i.e. cells activities suppressing the suppressor cell activities induced in thermally injured mice were determined in mixed lymphocyte tumor cell reaction (MLTR) by mixing and incubating the following cells for 5 days in a 96-wells round-bottom microplate.
Reaction cells: Spleen mononuclear cells (referred to hereinafter as SMNCs) (5.0×10^4 cells/well) obtained from normal BALB/c mice.
Stimulator cells: EL-4 tumor cells (5.0×10^4 cells/well).
Suppressor cells: SMNCs (2.5×10^5 cells/well) obtained from the model of increased susceptibility to infections. […]
Before incubation, the cells except for the reaction cells were treated with 40 μg/ml of mitomycin C solution at 37° C. for 30 minutes. Twenty-four hours before the conclusion of 3-days incubation, 0.5 μCi/well of ^3 H-thymidine was added to the well, and the amount of ^3 H-thymidine incorporated into the reaction cells was determined in a liquid scintillation counter to evaluate the contrasuppressor cell activities induced against the suppressor cell activities by administration of the active ingredient of the present agent.
The contrasuppressor cell activities induced against suppressor cell activities by administration of benzoylmesaconine was evaluated in the same manner as in "(3) Measurement of contrasuppressor cell activities" in Experimental Example 1. […]

In data set [7] the test system is AIDS virus (LP-BM5 virus). As to the kind of experiment: Survival of opportunistic infection model mice infected with AIDS virus (LP-BM5 virus) (Experimental Example 3). The class given is in vivo. As to conditions: 1 μg/kg oral, observed for 150 days, saline 0%. How it is done:
Mice as opportunistic infection model inoculated intraperioneally with 0.1 ml/mouse of a culture supernatant of AIDS virus (LP-BM5 virus) infected SC-1 cells were orally given benzoylmesaconine or physiological saline.

Data set [8] relates to CMV. As to conditions: SCID mice, 10 μg/kg/day oral.
Data set [9] deals with cytomegalovirus (CMV). Put plainly: Survival of thermally injured mice infected with cytomegalovirus (Experimental Example 7). The settings on record: CMV 2.5×10^3 PFU/mouse i.v., 10 μg/kg/day oral, 25 days.
The mark [10] stands for this setting: twenty-five days after infection.

Regarding `COCC12CN(C)C3C4C(OC)C1C3(C(OC)CC2O)C1CC2(O)C(OC)C(=O)C4C1C2OC(=O)c1ccccc1` (stereo not drawn) [16-epi-pyromesaconitine], the LD50 in [1] lay in the range of 20 to 500 mg/kg. Also, the “incorporation of ^3 H-thymidine” value in data set [2] is given as 16891 ± 2232 CPM ± SE. Besides, the responders at 0.001 mg/kg in data set [3] (setting [10]) amounted to 80%. Besides, in data set [3], the average survival days is listed as over 22.4 days.
The compound `COCC12CN(C)C3C4C(OC)C1C3(C(OC)CC2O)C1CC2(O)C(O)C1C4(O)C(O)C2OC` (centres unmarked) [mesaconine] registered an LD50 in data set [1] of 20 to 500 mg/kg. Further, the “incorporation of ^3 H-thymidine” value in data set [2] was 15791 ± 2778 CPM ± SE. Further, in [3] (setting [10]), the responders at 0.001 mg/kg was 85%. Moreover, the average survival days in data set [3] is given as over 23.1 days.
In [1], `COCC12CCC(OC)C34C5CC6(O)C(O)C5C(O)(C(O)C6OC)C(C(OC)C13)C4N(C)C2` (centres unmarked) [hypaconine] registered an LD50 of 20 to 500 mg/kg. In data set [2], the “incorporation of ^3 H-thymidine” value is 14111 ± 2232 CPM ± SE. Further, in data set [3] (setting [10]), the responders at 0.001 mg/kg is 85%. In addition, the average survival days in data set [3] was over 23.1 days.
In data set [1], `CCN1CC2(COC)C(O)CC(OC)C34C5CC6(O)C(OC)C(=O)C(C5C6OC(=O)c5ccccc5)C(C(OC)C23)C14` (stereo not drawn) [16-epi-pyraconitine] had an LD50 of 20 to 500 mg/kg. Besides, the “incorporation of ^3 H-thymidine” value in data set [2] is reported as 15654 ± 1209 CPM ± SE. In addition, in [3] (setting [10]), the responders at 0.001 mg/kg came to 70%. The compound further came in with an average survival days in data set [3] of over 21.2 days.
The compound `CCN1CC2(COC)C(O)CC(OC)C34C5CC6(O)C(OC)C(O)C(O)(C5C6OC(=O)c5ccccc5)C(C(OC)C23)C14` (centres unmarked) [benzoylaconine] showed a 50% lethal dose (LD50) in data set [1] of 20 to 500 mg/kg. In addition, the “incorporation of ^3 H-thymidine” value in data set [2] is listed as 16140 ± 1738 CPM ± SE. Besides, the responders at 0.001 mg/kg in data set [3] (setting [10]) amounted to 80%. The compound further gave an average survival days in data set [3] of over 22.5 days.
For the compound `CCN1CC2(COC)CCC(O)C34C5CC6C(OC)CC(O)(C5C6O)C(C(OC)C23)C14` (centres unmarked) [neoline], in data set [1], the LD50 was 20 to 500 mg/kg. Also, the “incorporation of ^3 H-thymidine” value in data set [2] was 13744 ± 526 CPM ± SE. Also, the responders at 0.001 mg/kg in [3] (setting [10]) was determined as 80%. This compound also displayed an average survival days in data set [3] of over 22.3 days.
On to `CCCCC[C@H](O)CC(=O)CCc1ccc(O)c(OC)c1` [gingerol], for which the average survival days in [4] (25 days) is reported as over 24.4 days. Also, the survival rate in data set [4] (setting [10]) amounted to 90%. Moreover, the “acute toxicity LD50” value in [5] is given as “about 250 mg/kg”.
`COCC12CN(C)C3C4C(OC)C1C3(C(OC)CC2O)C1CC2(O)C(OC)C(O)C4(O)C1C2OC(=O)c1ccccc1` (centres unmarked) [benzoylmesaconine] had a median lethal dose (LD50) in data set [1] of 20 to 500 mg/kg. In addition, the entries for the “incorporation of ^3 H-thymidine” value in data set [2] and in [6] (saline 1,730 ± 289) were 14754 ± 1832 CPM ± SE and 8,826 ± 535 CPM ± SE, respectively. The suppressing rate in data set [6] (saline 81%) was determined as 4%. In addition, the survival rate is 80% in data set [7]; 100% in [8] (CMV 2.5×10^3 PFU/mouse, saline 0%); 100% in [9] (saline 0%). Also, in data set [8], the “protective effect on CMV” value is “protective effect”. In [3] (setting [10]), the responders at 0.001 mg/kg worked out at 85%. Moreover, the average survival days in [3] is given as over 21.5 days; in data set [9] (saline 12.4), over 22.1 days.
In [1], `COCC12CCC(OC)C34C5CC6(O)C(OC)C(O)C(O)(C5C6OC(=O)c5ccccc5)C(C(OC)C13)C4N(C)C2` (centres unmarked) [benzoylhypaconine] showed a 50% lethal dose (LD50) of 20 to 500 mg/kg. In data set [2], the “incorporation of ^3 H-thymidine” value is 21319 ± 903 CPM ± SE. The responders at 0.001 mg/kg in data set [3] (setting [10]) is 80%. Further, the average survival days in data set [3] is over 22.4 days.
For the compound `C=C1C2CCC3(C4CC5C6(C)CCCC5(C(O4)N(CCO)C6)C3C2)C1O` (centres unmarked) [ajaconine], the LD50 in data set [1] was 20 to 500 mg/kg. In addition, in data set [2], the “incorporation of ^3 H-thymidine” value is 17655 ± 1879 CPM ± SE. Also, the responders at 0.001 mg/kg in data set [3] (setting [10]) is 80%. For the same compound, the average survival days in [3] is over 22.3 days.
Turning to `CCN1CC2(COC)C(O)CC(OC)C34C5CC6(O)C(OC)C(O)C(O)(C5C6OC(=O)c5ccc(OC)cc5)C(C(OC)C23)C14` (centres unmarked) [14-anisoylaconine], the LD50 in [1] was in the range of 20 to 500 mg/kg. Further, the “incorporation of ^3 H-thymidine” value in data set [2] is 12720 ± 1578 CPM ± SE. Moreover, the responders at 0.001 mg/kg in data set [3] (setting [10]) was found to be 80%. Moreover, the average survival days in [3] is listed as over 22.5 days.
With `C=C1[C@H]2C[C@@H]3[C@H]4N5C[C@@]6(C)[C@H]7[C@@H]5C[C@]3([C@@H]1O)[C@@](O)(C2)[C@]74C[C@@H](OC(=O)c1ccccc1)[C@@H]6O` [ignavine], the “incorporation of ^3 H-thymidine” value in data set [2] is given as 12831 ± 2255 CPM ± SE. In data set [3], this compound returned an average survival days of over 21.9 days. The survival rate in data set [3] (setting [10]) came out at 75%.
